This is an account of results in publication PMC9975698, “Hyperoside alleviates toxicity of β-amyloid via endoplasmic reticulum-mitochondrial calcium signal transduction cascade in APP/PS1 double transgenic Alzheimer's disease mice” (Redox Biology, 2023).

The target of one series is T1, Aβ aggregates (Homo sapiens, UniProt P05067).
T1 construct: purchased DGpeptites, Hangzhou, CHINA
Kind of series: Biolayer interferometry (BLI) analysis. Type of series: binding. How it is done:
200 μL of solution containing 200 μg of the Aβ peptide was incubated at 37 °C for 5 days. EZ-Link NHS-LC-LC-Biotin (Thermo Scientific, USA) was dissolved in DMSO to a concentration of 10 mM. Aβ aggregates was biotinylated in a 1:0.5 M ratio of biotin reagent and incubated for 30 min at room temperature before being added to a 96-well plate (Greiner Bio-One, PN:655,209). Biotinylation was ascertained by loading the mixture onto super streptavidin (SSA) capacity tips (ForteìBIO, CA, USA) and detected by the FortéBIO Octet Red instrument. Additionally, SSA biosensors were pre-wetted with PBS for the recording of baselines. Successful biotinylated Aβ aggregates solution was collected and immobilized onto SSA tips overnight at 4 °C. HYP dissolved in DMSO was diluted to an appropriate concentration with PBS to a final 200 μL/well volume. Control wells were added with an equal amount of DMSO. All experiments consisted of repeated cycles of four significant steps: wash (300 s), baseline (120 s), association (120 s), and dissociation (120 s). The association, dissociation plot, and kinetic constants were analyzed with ForteìBIO data analysis software.

Series [1] has as its system HT22 cells. Kind of series: Cytotoxicity (MTT) assay. Type of series: cell-based. How it is done:
Cytotoxicity was assessed using the MTT (5.0 mg/mL) assay. 4 × 10^3 HT22 cells per well were seeded in 96-well plates. After overnight incubation, cells were treated with Aβ aggregates (30 μM) for 48 h with or without the presence of HYP (20–80 μM). Cells were treated with DMSO as a control. Subsequently, MTT (10 μL) was added to each well for 4 h, followed by the addition of 100 μL of lysis buffer (10% SDS in 0.01 mol/L hydrochloric acid) and overnight incubation. The absorbance was measured at 570 nm the next day. The formula was calculated as a percentage of cell viability: Cell viability (%) = A (treatded) / A (control) × 100%. Data were obtained from three independent experiments in triplicate.

Series [2] relates to HT22 cells. The series can be described thus: LIVE/DEAD cells analysis (calcein AM / PI). Type of series: cell-based. To be noted: aggregated Aβ-treated HT22, HYP co-treatment 24 h. How it is done: According to the manufacturer's instructions, cell death was detected by Calcein AM Cell Viability Assay Kit (Beyotime, Shanghai, CHINA). 5 × 10^4 HT22 cells per well were seeded in 24-well plates, and HT22 was treated with HYP (20–80 μM) or PBS for 24 h. After overnight incubation, treated cells were stained with Calcein/Propidium Iodide (PI) dye for 20 min. Cells images were then visualized and captured by using Olympus IX71 fluorescence microscope with FITC and TRITC filters consecutively. Green and red fluorescence images were merged and analyzed with cellSens Standard 1.8.1 software. The percentage of cell death was quantified by dividing the number of dead cells (red fluorescence) by the total number of cells.

The test system of series [3] is HT22 cells. Kind of series: Western blot of Bcl-2, Bax and cyto-c in HT22 cells. The note with it: HT22 cells co-treated with Aβ aggregates 30 μM and HYP, 24 h. Type of series: cell-based. How it is done: After HYP treatment, the cells were lysed with RIPA. Protein concentrations were determined by Bio-Rad protein assay (Bio-Rad Laboratories, CA, USA). After electrophoretic separation, the gels were blotted and stained with primary antibodies. Binding of antibodies was visualized with peroxidase-coupled secondary antibodies using ECL Western Blotting detection reagents (Invitrogen, Scotland, UK). Band intensities were quantified using ImageJ software. Data were obtained from three independent experiments.
(In general: Immunoblotting shows a protein as a band on a membrane.)

The test system of series [4] is APP/PS1 mice. Kind of series: RT-PCR validation of calcium-related genes in mice. To be noted: HYP group compared to APP/PS1 group. Type of series: in vivo. How it is done: To investigate the molecular mechanism of HYP, initial data (36,668 raw reads) obtained from the RNA sequencing were performed. […] In GO classification, the unigenes were annotated in three major categories (Fig. 8B). […] For the biological process category, most of the unigenes were matched to immune and signaling processes. For the cellular component category, most of the unigenes were assigned to cell and cell part. For the molecular function category, binding activity accounted for the largest proportion. […] Gene set enrichment analysis (GSEA) has been extensively applied to identify underlying pathways. In Fig. 8D, GSEA analysis of calcium channels was performed in conjunction with the previous AD hypothesis. Next, the relative expression levels of the hub genes in the APP and HYP-treated mice groups were examined by RT-PCR analysis.

Series [5] relates to APP/PS1 mice. The series can be described thus: Western blot of Bcl-2, Bax and cyto-c in cortex and hippocampus lysates. Type of series: in vivo. The note with it: 8 weeks of HYP treatment vs APP/PS1 untreated group. How it is done: After HYP treatment, the cells were lysed with RIPA. Protein concentrations were determined by Bio-Rad protein assay (Bio-Rad Laboratories, CA, USA). After electrophoretic separation, the gels were blotted and stained with primary antibodies. Binding of antibodies was visualized with peroxidase-coupled secondary antibodies using ECL Western Blotting detection reagents (Invitrogen, Scotland, UK). Band intensities were quantified using ImageJ software. Data were obtained from three independent experiments. All animal care and experimental procedures were performed in accordance with the “Institutional Animal Care and User Committee Guidelines” of the Macau University of Science and Technology. APP/PSEN1 (APP/PS1) mice (N000175) were purchased from the Nanjing Institute of Biomedical Sciences, Nanjing University, China, weighing 25 ± 5 g. The animals were housed in a temperature-controlled room with a 12 h light/dark cycle and given ad libitum food and water. Male mice were randomly divided into the following 6 experimental groups. (a) wild-type group (n = 6), (b) APP/PS1 group (n = 6), (c) HYP (20 mg/kg group) (n = 7), (d) HYP (40 mg/kg) group (n = 8), (e) HYP (80 mg/kg) group (n = 8) and (f) memantine (MEM) (10 mg/kg) positive control group (n = 8). […]

Each structure is given as a SMILES string.

For orientation: Kd means the concentration at which binding is half-saturated. Low values mean a tighter complex, high ones a looser complex.

T1 sequence (P05067 672-713 limits assumed): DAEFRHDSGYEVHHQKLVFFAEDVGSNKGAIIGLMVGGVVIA

With `O=c1c(O[C@@H]2O[C@H](CO)[C@H](O)[C@H](O)[C@H]2O)c(-c2ccc(O)c(O)c2)oc2cc(O)cc(O)c12` [HYP, Quercetin-3-O-β-D-galactopyranoside], the “Kids” value on Aβ aggregates (Fig. 1G, dissociation rate constant) is 0.0343 s⁻¹. For the same compound, the Kd on Aβ aggregates (HYP 6.25–200 μM, biotinylated Aβ aggregate) amounted to 14.5 µM. The “cellular toxicity of HYP alone (MTT)” value in the series on HT22 cells [1] (HYP 20–80 μM) is listed as “no obvious cellular toxicity was observed”. In addition, in the series with HT22 cells [1] (HYP 20–80 μM + aggregated Aβ 30 μM), the “cell viability with aggregated Aβ co-treatment (MTT and flow cytometry)” value was “increased the cell viability in a dose-dependent manner”. Further, in the series on HT22 cells [2], the “cell viability by calcein AM / PI staining” value was “increase of cell viability”. Besides, the “ratio of Bax / Bcl-2 and level of cyto-c” value in the series with HT22 cells [3] is reported as “ratio of Bax / Bcl-2 was decreased with the reduction in the level of cyto-c”. Moreover, in the series with APP/PS1 mice [4], the “mRNA expression levels of calcium-related genes” value is “mRNA expression levels of Cav2.3, Cav1.3, NCLX and TRPV4 were decreased”. Moreover, the “level of Bax, cyto-c, Bcl-2 and Bax/Bcl-2 ratio” value in the series on APP/PS1 mice [5] is “a decrease in the level of both Bax and cyto-c, an increase in Bcl-2 expression, and a reduction in the Bax/Bcl-2 ratio”.
